Laboratory results from US11578056B2, “Solid forms comprising (S)-2-(2,6-dioxopiperidin-3-yl)-4-((2-fluoro-4-((3-morpholinoazetidin-1-yl)methyl)benzyl)amino)isoindoline-1,3-dione and salts thereof, and compositions comprising and methods of using the same” (Celgene Corporation, priority 2019, dated 2023).

Key:
Test in all cases: Hematological cell line viability/apoptosis flow cytometry assay
Assay type in all cases: cell-based
[1] = test system: DB cell line; conditions: 120 h
In short: (§1)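 Tumor cell lines were exposed for 5 days to compound (0.00015–10 μM) or 0.1% DMSO. Annexin V-negative, DRAQ7-negative cells were counted as viable relative to DMSO, and Annexin V-positive cells as apoptotic; nonlinear variable-slope fits gave IC50 and EC50.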

[2] = test system: Daudi cell line; conditions: Daudi (BL), 120 h
In short: as §1

[3] = test system: KARPAS-422 cell line; conditions: KARPAS-422 (DLBCL GCB); 120 h
In short: as §1

[4] = test system: KOPN-8 cell line; conditions: KOPN-8 (ALL), 120 h
In short: as §1

[5] = test system: NCI-H929 cell line; conditions: NCI-H929 (MM), 120 h
In short: as §1

[6] = test system: NU-DHL-1 cell line; conditions: NU-DHL-1 (DLBCL GCB); 120 h
In short: as §1

[7] = test system: NU-DUL-1 cell line; conditions: NU-DUL-1 (DLBCL ABC); 120 h
In short: as §1

[8] = test system: OCI-LY3 cell line; conditions: OCI-LY3 (DLBCL ABC), 120 h
In short: as §1

[9] = test system: SU-DHL-2 cell line; conditions: SU-DHL-2 (DLBCL ABC); 120 h
In short: as §1

[10] = test system: SU-DHL-4 cell line; conditions: SU-DHL-4 (DLBCL GCB); 120 h
In short: as §1

[11] = test system: SVSL cell line; conditions: SVSL (MZL, SMZL), 120 h
In short: as §1

[12] = test system: U-2904 cell line; conditions: U-2904 (DLBCL), 120 h
In short: as §1

[13] = test system: WA-C3-CD5+ cell line; conditions: WA-C3-CD5+ (CLL), 120 h
In short: as §1

[14] = Homo sapiens, read-out: % Viable Cells IC50

## O=C1CC[C@H](N2C(=O)c3cccc(NCc4ccc(CN5CC(N6CCOCC6)C5)cc4F)c3C2=O)C(=O)N1 [Compound 1, (S)-2-(2,6-dioxopiperidin-3-yl)-4-((2-fluoro-4-((3-morpholinoazetidin-1-yl)methyl)benzyl)amino)isoindoline-1,3-dione]
[1]
  % Viable Cells AUC: 941.4
  % Viable Cells Emax: 89.46%
  Apoptosis AUC: 80.31
  Apoptosis Ymax: 11.62%
[1]; [14]
  IC50: > 10000 nM
[2]
  % Viable Cells AUC: 196.4
  % Viable Cells Emax: 0%
  Apoptosis AUC: 274
  Apoptosis Ymax: 84.0%
[2]; Homo sapiens
  EC50: 2320 nM
[2]; [14]
  IC50: 0.6 nM
[3]
  % Viable Cells AUC: 19.97
  % Viable Cells Emax: 0.8721%
  Apoptosis AUC: 911.9
  Apoptosis Ymax: 93.99%
[4]; Homo sapiens
  EC50: 726000 nM
[4]; [14]
  IC50: 41.8 nM
[4]
  % Viable Cells AUC: 490.2
  % Viable Cells Emax: 38.3%
  Apoptosis AUC: 14.95
  Apoptosis Ymax: 5.00%
[5]; Homo sapiens
  EC50: 11300 nM
[5]; [14]
  IC50: 0.7 nM
[5]
  % Viable Cells AUC: 215.5
  % Viable Cells Emax: 6.1%
  Apoptosis AUC: 16.86
  Apoptosis Ymax: 7.00%
[6]
  % Viable Cells AUC: 12.37
  % Viable Cells Emax: 0.4919%
  Apoptosis AUC: 981.8
  Apoptosis Ymax: 99.17%
[7]
  % Viable Cells AUC: 22.12
  % Viable Cells Emax: 0.0228%
  Apoptosis AUC: 962.8
  Apoptosis Ymax: 99.84%
[8]; [14]
  IC50: > 10000 nM
[8]
  % Viable Cells AUC: 965.1
  % Viable Cells Emax: 85.63%
  Apoptosis AUC: 24.63
  Apoptosis Ymax: 4.493%
[9]
  % Viable Cells AUC: 5.586
  % Viable Cells Emax: 0.2145%
  Apoptosis AUC: 928.4
  Apoptosis Ymax: 95.98%
[10]
  % Viable Cells AUC: 296.2
  % Viable Cells Emax: 23.44%
  Apoptosis AUC: 209
  Apoptosis Ymax: 25.33%
[11]
  % Viable Cells AUC: 368.4
  % Viable Cells Emax: 34.07%
  Apoptosis AUC: 340.2
  Apoptosis Ymax: 35.5%
  EC50: 2.84 nM
[11]; read-out: % Viable Cells IC50
  IC50: 95.2 nM
[12]
  % Viable Cells AUC: 334.1
  % Viable Cells Emax: 7.609%
  Apoptosis AUC: 456.1
  Apoptosis Ymax: 77.39%
  EC50: 3290 nM
[12]; read-out: % Viable Cells IC50
  IC50: 201 nM
[13]
  % Viable Cells AUC: 474.8
  % Viable Cells Emax: 44.2%
  Apoptosis AUC: 162.9
  Apoptosis Ymax: 17.47%
  EC50: 52.4 nM
[13]; read-out: % Viable Cells IC50
  IC50: 530 nM
